{"source": "paper PMC6599640", "about": "(Pharmaceutical research, 2018)", "key": {"in vitro [1]": {"assay": "in vitro", "conditions": "human, Caco-2"}, "[2]": {"assay": "MTT viability assay on SMI microtissues after drug exposure", "conditions": "human, SMI (small intestinal) microtissues"}, "P-gp": {"target": "P-gp (Homo sapiens, UniProt P08183)", "sequence (P08183 whole entry)": "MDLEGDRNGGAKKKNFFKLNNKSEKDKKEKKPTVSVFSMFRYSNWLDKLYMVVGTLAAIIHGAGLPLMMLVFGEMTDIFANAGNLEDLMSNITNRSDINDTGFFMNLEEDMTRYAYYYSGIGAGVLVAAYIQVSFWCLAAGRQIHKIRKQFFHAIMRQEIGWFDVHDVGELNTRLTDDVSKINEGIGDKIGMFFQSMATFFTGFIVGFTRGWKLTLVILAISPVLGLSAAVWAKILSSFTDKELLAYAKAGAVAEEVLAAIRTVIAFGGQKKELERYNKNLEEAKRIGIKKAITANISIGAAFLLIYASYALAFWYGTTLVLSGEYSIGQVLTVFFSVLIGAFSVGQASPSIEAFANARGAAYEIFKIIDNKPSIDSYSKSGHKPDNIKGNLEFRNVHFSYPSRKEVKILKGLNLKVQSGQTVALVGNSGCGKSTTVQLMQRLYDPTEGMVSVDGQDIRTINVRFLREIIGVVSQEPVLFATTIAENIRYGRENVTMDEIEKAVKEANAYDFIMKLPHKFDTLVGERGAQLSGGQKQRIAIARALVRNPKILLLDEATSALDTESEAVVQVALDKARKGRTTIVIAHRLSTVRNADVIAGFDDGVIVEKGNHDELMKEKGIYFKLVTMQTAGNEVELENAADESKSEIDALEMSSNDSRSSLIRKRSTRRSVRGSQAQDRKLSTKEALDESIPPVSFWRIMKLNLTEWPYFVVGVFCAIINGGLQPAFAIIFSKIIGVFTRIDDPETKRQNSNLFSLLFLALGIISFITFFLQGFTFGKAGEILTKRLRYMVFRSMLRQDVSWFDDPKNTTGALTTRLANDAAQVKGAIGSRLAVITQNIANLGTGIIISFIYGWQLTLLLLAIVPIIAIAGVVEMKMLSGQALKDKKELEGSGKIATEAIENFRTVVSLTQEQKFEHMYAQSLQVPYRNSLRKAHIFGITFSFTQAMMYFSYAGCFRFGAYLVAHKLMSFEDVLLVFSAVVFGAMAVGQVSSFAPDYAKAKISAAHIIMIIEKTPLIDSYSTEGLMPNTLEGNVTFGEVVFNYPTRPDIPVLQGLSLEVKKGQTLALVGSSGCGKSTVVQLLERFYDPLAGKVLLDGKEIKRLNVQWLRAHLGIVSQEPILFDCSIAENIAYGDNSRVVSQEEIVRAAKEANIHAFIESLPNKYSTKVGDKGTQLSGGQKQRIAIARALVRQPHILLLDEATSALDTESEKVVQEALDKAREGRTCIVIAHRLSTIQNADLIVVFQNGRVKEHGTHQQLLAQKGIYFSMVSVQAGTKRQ", "assay": "in vitro"}, "SMI microtissues [3]": {"system": "SMI microtissues", "assay": "Drug permeability across SMI microtissues", "conditions": "for Efflux: Table VIII, 10 μM, 2 h"}, "[4]": {"assay": "Drug permeability across SMI microtissues", "conditions": "human, A-B Papp, Table VIII, 10 μM, 2 h, n = 3"}, "BCRP": {"target": "BCRP (Homo sapiens, UniProt Q9UNQ0)", "sequence (Q9UNQ0 whole entry)": "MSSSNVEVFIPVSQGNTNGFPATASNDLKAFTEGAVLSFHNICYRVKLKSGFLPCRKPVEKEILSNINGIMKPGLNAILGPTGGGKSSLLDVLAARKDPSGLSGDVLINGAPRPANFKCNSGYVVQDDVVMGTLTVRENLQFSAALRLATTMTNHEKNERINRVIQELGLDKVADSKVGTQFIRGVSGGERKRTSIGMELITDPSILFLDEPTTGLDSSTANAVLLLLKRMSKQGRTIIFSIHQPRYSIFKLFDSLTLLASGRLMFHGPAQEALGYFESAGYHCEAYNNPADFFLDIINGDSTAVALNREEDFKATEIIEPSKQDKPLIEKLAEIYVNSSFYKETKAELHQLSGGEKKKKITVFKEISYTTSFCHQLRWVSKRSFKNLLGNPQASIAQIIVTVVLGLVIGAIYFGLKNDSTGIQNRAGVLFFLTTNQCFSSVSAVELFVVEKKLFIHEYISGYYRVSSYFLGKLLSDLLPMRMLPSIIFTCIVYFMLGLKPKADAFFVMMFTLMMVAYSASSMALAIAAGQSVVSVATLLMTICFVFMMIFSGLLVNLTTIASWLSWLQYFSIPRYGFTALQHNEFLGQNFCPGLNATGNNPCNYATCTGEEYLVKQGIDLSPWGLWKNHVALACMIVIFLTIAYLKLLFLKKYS", "assay": "in vitro"}, "Caco-2 cell monolayers": {"system": "Caco-2 cell monolayers", "conditions": "Table VI; 10 μM, 2 h"}, "[5]": {"conditions": "cited from earlier work"}, "SMI microtissues [6]": {"system": "SMI microtissues"}, "in vitro [7]": {"assay": "in vitro", "conditions": "human"}}, "note": "Where two headings read alike, the source gives them in different places.", "data": [{"smiles": "CCCC(=O)Nc1ccc(OCC(O)CNC(C)C)c(C(C)=O)c1", "note": "(centres unmarked) [Acebutolol]", "values": [{"measurement": "Papp at 2 h, 10 μM", "setting": "in vitro [1]", "value": 0.4, "unit": "×10⁻⁶ cm/s"}, {"measurement": "viability at 96 h, 1 µM", "setting": "[2]", "value": 98.5, "unit": "%"}, {"measurement": "viability at 96 h, 10 µM", "setting": "[2]", "value": 97.5, "unit": "%"}]}, {"smiles": "Nc1nc2c(ncn2COCCO)c(=O)[nH]1", "note": "[Acyclovir]", "values": [{"measurement": "Papp at 2 h, 10 μM", "setting": "in vitro [1]", "value": 0.9, "unit": "×10⁻⁶ cm/s"}, {"measurement": "viability at 96 h, 1 µM", "setting": "[2]", "value": 104, "unit": "%"}, {"measurement": "viability at 96 h, 10 µM", "setting": "[2]", "value": 97.6, "unit": "%"}, {"measurement": "viability at 96 h, 100 µM", "setting": "[2]", "value": 91.1, "unit": "%"}]}, {"smiles": "CN/C(=N/CCSCc1nc[nH]c1C)NC#N", "note": "[Cimetidine]", "values": [{"measurement": "Papp at 2 h, 10 μM", "setting": "in vitro [1]", "value": 2.7, "unit": "×10⁻⁶ cm/s"}, {"measurement": "viability at 96 h, 1 µM", "setting": "[2]", "value": 109, "unit": "%"}, {"measurement": "viability at 96 h, 10 µM", "setting": "[2]", "value": 103, "unit": "%"}, {"measurement": "viability at 96 h, 100 µM", "setting": "[2]", "value": 96.1, "unit": "%"}]}, {"smiles": "C[C@H]1O[C@@H](O[C@H]2[C@@H](O)C[C@H](O[C@H]3[C@@H](O)C[C@H](O[C@H]4CC[C@@]5(C)[C@H](CC[C@@H]6[C@@H]5C[C@@H](O)[C@]5(C)[C@@H](C7=CC(=O)OC7)CC[C@]65O)C4)O[C@@H]3C)O[C@@H]2C)C[C@H](O)[C@@H]1O", "note": "[Digoxin]", "values": [{"measurement": "Papp B→A at 2 h, 10 μM", "setting": "P-gp", "value": "29 ± 5", "unit": "×10⁻⁶ cm/s"}, {"measurement": "Papp at 2 h, 10 μM", "setting": "P-gp", "value": "12.6 ± 0.74", "unit": "×10⁻⁶ cm/s"}, {"measurement": "efflux ratio at 2 h, 10 μM", "setting": "P-gp", "value": 2.3}, {"measurement": "Papp at 2 h, 10 μM", "setting": "P-gp; with Verapamil 100 uM", "value": "16 ± 1.75", "unit": "×10⁻⁶ cm/s"}, {"measurement": "efflux ratio at 2 h, 10 μM", "setting": "P-gp; with Verapamil 100 uM", "value": 1.4}]}, {"smiles": "CCOC(=O)[C@H](CCc1ccccc1)N[C@@H](C)C(=O)N1CCC[C@H]1C(=O)O", "note": "[Enalapril]", "values": [{"measurement": "Papp at 2 h, 10 μM", "setting": "in vitro [1]", "value": 0.2, "unit": "×10⁻⁶ cm/s"}, {"measurement": "viability at 96 h, 1 µM", "setting": "[2]", "value": 109, "unit": "%"}, {"measurement": "viability at 96 h, 10 µM", "setting": "[2]", "value": 105, "unit": "%"}, {"measurement": "viability at 96 h, 100 µM", "setting": "[2]", "value": 99, "unit": "%"}]}, {"smiles": "CC[C@H]1OC(=O)[C@H](C)[C@@H](O[C@H]2C[C@@](C)(OC)[C@@H](O)[C@H](C)O2)[C@H](C)[C@@H](O[C@@H]2O[C@H](C)C[C@H](N(C)C)[C@H]2O)[C@](C)(O)C[C@@H](C)C(=O)[C@H](C)[C@@H](O)[C@]1(C)O", "note": "[Erythromycin]", "values": [{"measurement": "Papp at 2 h, 10 μM", "setting": "in vitro [1]", "value": 0.2, "unit": "×10⁻⁶ cm/s"}]}, {"smiles": "O=C1NC(c2ccccc2)(c2ccccc2)C(=O)N1COP(=O)(O)O", "note": "[Fosphenytoin]", "values": [{"measurement": "Efflux", "setting": "SMI microtissues [3]", "value": 0.31}, {"measurement": "Papp A→B at 2 h, 10 μM", "setting": "[4]; Transport A-B", "value": 12.3, "unit": "×10⁻⁶ cm/s"}, {"measurement": "Papp A→B at 2 h, 10 μM", "setting": "[4]; line Transport B-A", "value": 3.77, "unit": "×10⁻⁶ cm/s"}]}, {"smiles": "CN(C)C(=O)C(CCN1CCC(O)(c2ccc(Cl)cc2)CC1)(c1ccccc1)c1ccccc1", "note": "[Loperamide]", "values": [{"measurement": "efflux ratio at 2 h, 10 μM", "setting": "P-gp; Efflux ratio, with inhibitor Verapamil 100 uM, substrate 10 μM, 2 hr", "value": 6.5}, {"measurement": "Papp at 2 h, 10 μM", "setting": "P-gp; Mean A- > B Papp, No Inhibitor, substrate 10 μM, 2 hr, n = 3", "value": 0.9, "unit": "×10⁻⁶ cm/s"}, {"measurement": "Papp B→A at 2 h, 10 μM", "setting": "P-gp; Mean B- > A Papp, No Inhibitor, substrate 10 μM, 2 hr, n = 3", "value": "15.5 ± 4.6", "unit": "×10⁻⁶ cm/s"}]}, {"smiles": "Cc1ncc2n1-c1ccc(Cl)cc1C(c1ccccc1F)=NC2", "note": "[Midazolam]", "values": [{"measurement": "Efflux", "setting": "SMI microtissues [3]", "value": 0.95}, {"measurement": "Papp A→B at 2 h, 10 μM", "setting": "[4]; Transport A-B", "value": 14.4, "unit": "×10⁻⁶ cm/s"}, {"measurement": "Papp A→B at 2 h, 10 μM", "setting": "[4]; line Transport B-A", "value": 13.7, "unit": "×10⁻⁶ cm/s"}]}, {"smiles": "O=C1CN(/N=C/c2ccc([N+](=O)[O-])o2)C(=O)N1", "note": "[Nitrofurantoin]", "values": [{"measurement": "Papp B→A at 2 h, 10 μM", "setting": "BCRP", "value": "28.4 ± 3.3", "unit": "×10⁻⁶ cm/s"}, {"measurement": "Papp at 2 h, 10 μM", "setting": "BCRP", "value": "2.7 ± 1.6", "unit": "×10⁻⁶ cm/s"}, {"measurement": "Papp B→A at 2 h, 10 μM", "setting": "BCRP; with Novobiocin 50 uM", "value": "18.9 ± 1", "unit": "×10⁻⁶ cm/s"}, {"measurement": "Papp at 2 h, 10 μM", "setting": "BCRP; with Novobiocin 50 uM", "value": "4.7 ± 0.65", "unit": "×10⁻⁶ cm/s"}]}, {"smiles": "CC(C)NCC(O)COc1cccc2ccccc12", "note": "(centres unmarked) [Propranolol]", "values": [{"measurement": "Caco-2 mean A- > B Papp", "setting": "Caco-2 cell monolayers", "value": "12.9 10^−6 cm s^−1"}]}, {"smiles": "C=C[C@H]1C[N@@]2CC[C@H]1C[C@@H]2[C@@H](O)c1ccnc2ccc(OC)cc12", "note": "[Quinidine]", "values": [{"measurement": "Fraction absorbed (%) in humans", "setting": "[5]; in vivo", "value": 80, "unit": "%"}, {"measurement": "viability at 96 h, 1 µM", "setting": "[2]", "value": 99.4, "unit": "%"}, {"measurement": "viability at 96 h, 10 µM", "setting": "[2]", "value": 100, "unit": "%"}, {"measurement": "viability at 96 h, 100 µM", "setting": "[2]", "value": 99.3, "unit": "%"}]}, {"smiles": "CNC(=C[N+](=O)[O-])NCCSCc1ccc(CN(C)C)o1", "note": "[Ranitidine]", "values": [{"measurement": "Papp A→B at 2 h, 10 μM", "setting": "in vitro [1]", "value": 0.2, "unit": "×10⁻⁶ cm/s"}, {"measurement": "Papp at 2 h, 10 μM", "setting": "in vitro [1]", "value": 0.1, "unit": "×10⁻⁶ cm/s"}, {"measurement": "Fraction absorbed in humans (class)", "setting": "[5]; Table IX, class in brackets, no reference given", "value": "Moderate"}, {"measurement": "Papp A- > B SMI microtissues", "setting": "SMI microtissues [3]; Table V, mean of n = 2 SMI microtissue lots", "value": "2.2 ± 0.5 10^−6 cm^s−1"}, {"measurement": "viability at 96 h, 1 µM", "setting": "[2]", "value": 102, "unit": "%"}, {"measurement": "viability at 96 h, 10 µM", "setting": "[2]", "value": 98.1, "unit": "%"}, {"measurement": "viability at 96 h, 100 µM", "setting": "[2]", "value": 96, "unit": "%"}]}, {"smiles": "CC(C)c1nc(N(C)S(C)(=O)=O)nc(-c2ccc(F)cc2)c1/C=C/[C@@H](O)C[C@@H](O)CC(=O)O", "note": "[Rosuvastatin]", "values": [{"measurement": "Papp B→A at 2 h, 10 μM", "setting": "P-gp", "value": "9.4 ± 1", "unit": "×10⁻⁶ cm/s"}, {"measurement": "Papp at 2 h, 10 μM", "setting": "P-gp", "value": "0.5 ± 0.07", "unit": "×10⁻⁶ cm/s"}, {"measurement": "Papp B→A at 2 h, 10 μM", "setting": "P-gp; with Elacider 100 uM", "value": "5.3 ± 0.3", "unit": "×10⁻⁶ cm/s"}]}, {"smiles": "CC(=O)CC(c1ccccc1)c1c(O)c2ccccc2oc1=O", "note": "(centres unmarked) [Warfarin]", "values": [{"measurement": "Papp A- > B SMI microtissues", "setting": "SMI microtissues [6]", "value": "22.3 ± 0.5 10^−6 cm^s−1"}, {"measurement": "Papp at 2 h, 10 μM", "setting": "in vitro [7]; Lot #1 Mean A- > B Papp", "value": "48.5 ± 8.18", "unit": "×10⁻⁶ cm/s"}, {"measurement": "Papp at 2 h, 10 μM", "setting": "in vitro [7]; Lot #2 Mean A- > B Papp", "value": "24.3 ± 0.86", "unit": "×10⁻⁶ cm/s"}, {"measurement": "Papp at 2 h, 10 μM", "setting": "in vitro [7]; Lot #3 Mean A- > B Papp", "value": "19.9 ± 3.45", "unit": "×10⁻⁶ cm/s"}, {"measurement": "Papp at 2 h, 10 μM", "setting": "in vitro [7]; SMI mean A- > B Papp", "value": "36.7 ± 16.8", "unit": "×10⁻⁶ cm/s"}, {"measurement": "Papp A→B at 2 h, 10 μM", "setting": "in vitro [1]", "value": "27.8 ± 7.6", "unit": "×10⁻⁶ cm/s"}, {"measurement": "Papp at 2 h, 10 μM", "setting": "in vitro [1]", "value": 28.6, "unit": "×10⁻⁶ cm/s"}]}]}
